Measured values: US11433055B2, “Chromane monobactam compounds for the treatment of bacterial infections” (priority 2017, dated 2022)
Where two headings read alike, the source gives them in different places.

What was measured:
Type in all cases: cell-based
Conditions in all cases: lowest concentration inhibiting 95% of bacterial growth, in the presence of β lactamase inhibitor (BLi, Relebactam), 22 hours, 35±2° C., OD600
[1] = test system: Pseudomonas aeruginosa expressing AmpC (CL5701)
Protocol: (§1) Antibiotic Activity: Determination of Growth Inhibitory Concentration
(§2) The concentrations of compounds required to inhibit the growth of various strains of bacteria were determined in an assay that assessed bacterial growth by measuring optical density at 600 nm (OD600). The bacterial strains tested included the clinical strains Escherichia coli expressing NDM-1 (CLB30016), Klebsiella pneumoniae expressing KPC-1 (CL6569), Acinetobacter baumannii expressing TEM-1, AmpC, and Oxa-24/40 (CL6188) and Pseudomonas aeruginosa expressing AmpC (CL5701). All compounds were tested in the presence of a β lactamase inhibitor (BLi, Relebactam) in 384-well microplates. The clinical strains were stored as frozen single use stocks, thawed and diluted into 1.1× cation-adjusted Mueller-Hinton II broth to achieve approximately 2×10^5 CFU/mL. Test compounds were dissolved in DMSO and diluted 1:50 in the assay, resulting in a final concentration range of 100 μM to 0.098 μM. On the day of the assay, 1 μL of test compound was added to the plate followed by 4 μL of 50 μg/mL BLi in MOPS buffer and 45 μL of diluted bacteria. Plates were centrifuged at 1000 rpm for 30 seconds, shaken at approximately 800 rpm for 1 minute, and incubated at 35±2° C. for 22 hours. The concentration of BLi used in the assay was […]. At the end of the incubation, absorbance at 600 nm was determined using a spectrophotometer. Inhibition was quantitated by identifying the lowest concentration of test compound that was required to inhibit 95% of the growth of the bacteria. The results for Examples 1-39 are reported in Table I, expressed as the concentration of compound that inhibited 95% of bacterial growth (Minimum Inhibitory Threshold Concentration; MITC95).

[2] = test system: Escherichia coli expressing NDM-1 (CLB30016)
Protocol: as §1, §2

[3] = test system: Klebsiella pneumoniae expressing KPC-1 (CL6569)
Protocol: as §1, §2

[4] = test system: Acinetobacter baumannii expressing TEM-1, AmpC, and Oxa-24/40 (CL6188)
Protocol: as §1, §2

| Structure (SMILES) | PA_CL5701 MITC95 [1] [µM] | EC_CLB30016 MITC95 [2] [µM] | KP_CL6569 MITC95 [3] [µM] | AB_CL6188 MITC95 [4] [µM] | PA_CL5701 MITC95 ([1]; sulfate formate) [µM] | EC_CLB30016 MITC95 ([2]; sulfate formate) [µM] | KP_CL6569 MITC95 ([3]; sulfate formate) [µM] | AB_CL6188 MITC95 ([4]; sulfate formate) [µM] |
| --- | --- | --- | --- | --- | --- | --- | --- | --- |
| C[n+]1cc(-c2ccc3c(c2)CC[C@H]([C@](C)(O/N=C(\C(=O)N[C@@H]2C(=O)N(OS(=O)(=O)[O-])C2(C)C)c2csc(N)n2)C(=O)O)O3)ccc1CC(CN)CN.O=CO [Example 16, (3S)-3-((Z)-2-(((1S)-1-((2R)-6-(6-(3-amino-2-(ammonio-methyl)propyl)-1-methylpyridin-1-ium-3-yl)chroman-2-yl)-1-carboxyethoxy)imino)-2-(2-aminothiazol-4-yl)acetamido)-2,2-dimethyl-4-oxoazetidin-1-yl sulfate formate] | 3.125 | 6.25 | 0.3906 | 3.125 |  |  |  |  |
| C[n+]1cc(-c2ccc3c(c2)CC[C@H]([C@](C)(O/N=C(\C(=O)N[C@@H]2C(=O)N(OS(=O)(=O)[O-])C2(C)C)c2csc(N)n2)C(=O)O)O3)cnc1NC[C@H](O)CN.O=CO [Example 17, (S)-3-((Z)-2-(2-aminothiazol-4-yl)-2-(((S)-1-((R)-6-(2-(((R)-3-ammonio-2-hydroxy-propyl)amino)-1-methyl-pyrimidin-1-ium-5-yl)chroman-2-yl)-1-carboxy-ethoxy)imino)acetamido)-2,2-dimethyl-4-oxoazetidin-1-yl sulfate formate] | 6.25 | 6.25 | 0.3906 | 12.5 |  |  |  |  |
| C[n+]1cc(-c2ccc3c(c2)CC[C@H]([C@](C)(O/N=C(\C(=O)N[C@@H]2C(=O)N(OS(=O)(=O)[O-])C2(C)C)c2csc(N)n2)C(=O)O)O3)cnc1NC[C@@H](O)CN.O=CO [Example 18, (S)-3-((Z)-2-(2-aminothiazol-4-yl)-2-(((S)-1-((R)-6-(2-(((S)-3-ammonio-2-hydroxy-propyl)amino)-1-methylpyrimidin-1-ium-5-yl)chroman-2-yl)-1-carboxy-ethoxy)imino)acetamido)-2,2-dimethyl-4-oxoazetidin-1-yl sulfate formate] | 6.25 | 6.25 | 0.3906 | 3.125 |  |  |  |  |
| CC1(C)[C@H](NC(=O)/C(=N\O[C@](C)(C(=O)O)[C@H]2CCc3cc(-c4cnc(NC[C@H](O)CN)[n+](CC5CNC5)c4)ccc3O2)c2csc(N)n2)C(=O)N1OS(=O)(=O)[O-].O=CO [Example 19, (S)-3-((Z)-2-(((S)-1-((R)-6-(2-(((R)-3-amino-2-hydroxy-propyl)amino)-1-(azetidin-1-ium-3-ylmethyl)pyrimidin-1-ium-5-yl)chroman-2-yl)-1-carboxyethoxy)imino)-2-(2-aminothiazol-4-yl)acetamido)-2,2-dimethyl-4-oxoazetidin-1-yl sulfate formate] | 12.5 | 6.25 | 0.7813 | 12.5 |  |  |  |  |
| CC1(C)[C@H](NC(=O)/C(=N\O[C@](C)(C(=O)O)[C@H]2CCc3cc(-c4cnc(NC[C@@H](O)CN)[n+](CC5CNC5)c4)ccc3O2)c2csc(N)n2)C(=O)N1OS(=O)(=O)[O-].O=CO [Example 20, (S)-3-((Z)-2-(((S)-1-((R)-6-(2-(((S)-3-amino-2-hydroxy-propyl)amino)-1-(azetidin-1-ium-3-ylmethyl)pyrimidin-1-ium-5-yl)chroman-2-yl)-1-carboxyethoxy)imino)-2-(2-aminothiazol-4-yl)acetamido)-2,2-dimethyl-4-oxoazetidin-1-yl sulfate formate] | 6.25 | 6.25 | 0.3906 | 6.25 |  |  |  |  |
| CC1(C)[C@H](NC(=O)/C(=N\O[C@](C)(C(=O)O)[C@H]2CCc3cc(-c4ccc(NCCCN)[n+](CCCN)c4)ccc3O2)c2csc(N)n2)C(=O)N1OS(=O)(=O)[O-].O=CO [Example 21, (S)-3-((Z)-2-(((S)-1-((R)-6-(1-(3-aminopropyl)-6-((3-ammoniopropyl)amino)pyridin-1-ium-3-yl)chroman-2-yl)-1-carboxyethoxy)imino)-2-(2-aminothiazol-4-yl)acetamido)-2,2-dimethyl-4-oxoazetidin-1-yl sulfate formate] | 12.5 | 6.25 | 0.3906 | 3.125 |  |  |  |  |
| CC1(C)[C@H](NC(=O)/C(=N\O[C@](C)(C(=O)O)[C@H]2CCc3cc(-c4ccc(NCCCN)[n+](CC5CNC5)c4)ccc3O2)c2csc(N)n2)C(=O)N1OS(=O)(=O)[O-].O=CO [Example 22, (S)-3-((Z)-2-(((S)-1-((R)-6-(6-((3-aminopropyl)amino)-1-(azetidin-1-ium-3-ylmethyl)pyridin-1-ium-3-yl)chroman-2-yl)-1-carboxyethoxy)imino)-2-(2-aminothiazol-4-yl)acetamido)-2,2-dimethyl-4-oxoazetidin-1-yl sulfate formate] | 25 | 12.5 | 0.7813 | 12.5 |  |  |  |  |
| C[n+]1cc(-c2ccc3c(c2)CC[C@H]([C@](C)(O/N=C(\C(=O)N[C@@H]2C(=O)N(OS(=O)(=O)[O-])C2(C)C)c2csc(N)n2)C(=O)O)O3)ccc1NC(CN)CN.O=CO [Example 23A, (3S)-3-((Z)-2-(((1S)-1-((2R)-6-(6-((1-amino-3-ammoniopropan-2-yl)amino)-1-methylpyridin-1-ium-3-yl)chroman-2-yl)-1-carboxyethoxy)imino)-2-(2-aminothiazol-4-yl)acetamido)-2,2-dimethyl-4-oxoazetidin-1-yl sulfate formate] |  |  |  |  | 3.125 | 12.5 | 0.3906 | 6.25 |
| C[n+]1cc(-c2ccc3c(c2)CC[C@H]([C@](C)(O/N=C(\C(=O)N[C@@H]2C(=O)N(OS(=O)(=O)[O-])C2(C)C)c2csc(N)n2)C(=O)O)O3)ccc1NC(CN)CN.O=CO [Example 23B, (3S)-3-((Z)-2-(((1S)-1-((2R)-6-(6-((1-amino-3-ammoniopropan-2-yl)amino)-1-methylpyridin-1-ium-3-yl)chroman-2-yl)-1-carboxyethoxy)imino)-2-(2-aminothiazol-4-yl)acetamido)-2,2-dimethyl-4-oxoazetidin-1-yl sulfate formate] |  |  |  |  | 25 | 100 | 3.125 | 12.5 |
| C[n+]1cc(-c2ccc3c(c2)CC[C@H]([C@](C)(O/N=C(\C(=O)N[C@@H]2C(=O)N(OS(=O)(=O)[O-])C2(C)C)c2csc(N)n2)C(=O)O)O3)cnc1NC(CN)CN.O=CO [Example 24, (3S)-3-((Z)-2-(((1S)-1-((2R)-6-(2-((1-amino-3-ammonio-propan-2-yl)amino)-1-methyl-pyrimidin-1-ium-5-yl)chroman-2-yl)-1-carboxyethoxy)imino)-2-(2-aminothiazol-4-yl)acetamido)-2,2-dimethyl-4-oxoazetidin-1-yl sulfate formate] | 3.125 | 3.125 | 0.3906 | 1.563 |  |  |  |  |
| CC1(C)[C@H](NC(=O)/C(=N\O[C@](C)(C(=O)O)[C@H]2CCc3cc(C4CN=C(NCCCN)NC4)ccc3O2)c2csc(N)n2)C(=O)N1OS(=O)(=O)O (stereo partly drawn) [Example 27, (2S)-2-((2R)-6-(2-((3-aminopropyl)amino)-1,4,5,6-tetrahydropyrimidin-5-yl)chroman-2-yl)-2-(((Z)-(1-(2-aminothiazol-4-yl)-2-(((S)-22-dimethyl-4-oxo-1-(sulfooxy)azetidin-3-yl)amino)-2-oxoethylidene)amino)oxy)propanoic Acid] | 6.25 | 12.5 | 0.7813 | 12.5 |  |  |  |  |
| CC1(C)[C@H](NC(=O)/C(=N/O[C@](C)(C(=O)O)[C@H]2CCc3cc(C4CN=C(NC[C@H](O)CN)NC4)ccc3O2)c2csc(N)n2)C(=O)N1OS(=O)(=O)O.O=CO (stereo partly drawn) [Example 28, 2-(((R)-3-amino-2-hydroxypropyl)amino)-5-((R)-2-((S)-1-((((E)-1-(2-aminothiazol-4-yl)-2-(((S)-2,2-dimethyl-4-oxo-1-(sulfooxy)azetidin-3-yl)amino)-2-oxoethylidene)amino)oxy)-1-carboxyethyl)chroman-6-yl)-3,4,5,6-tetrahydropyrimidin-1-ium formate] | 3.13 | 6.25 | 0.2 | 3.13 |  |  |  |  |
